Laboratory results published in patent US20240197729A1, “ALK-5 Inhibitors and Uses Thereof” (Sumitomo Pharma Oncology, Inc., priority 2021, published 2024).

How the values were obtained:
[1] = test system: TGF-β1-mediated αSMA expression; conditions: human, 73 h
Procedure: To test the ability of selected compounds to inhibit the TGF-β1-dependent transition of fibroblasts to myofibroblasts in a relevant disease model of IPF, an FMT assay was performed using lung fibroblasts from IPF patients. In this assay, the transition of fibroblasts to myofibroblasts is determined by the expression of the biomarker alpha smooth muscle actin (α-SMA).
Primary human bronchial fibroblasts derived from IPF patients were seeded on day zero and the media was refreshed on day two. On day five, selected compounds or controls were added at an eight-point concentration response curve starting at 10 μM (semi-log dilutions). Each drug concentration condition was evaluated in biological duplicates. […] Seventy-two hours following TGF-beta addition, the cells were fixed with formaldehyde. High content imaging evaluating cell number using the nuclear stain DAPI as well as the expression of a-SMA was performed. The following controls were run alongside the selected compounds: vactosertib and the approved IPF drug nintedanib (at an eight-point, semi-log curve with 10 μM starting concentration). As a negative control 0.1% DMSO was also used, matching the DMSO concentration in treated wells. The following calculations were used to determine cell number as well as percent inhibition (PIN) of alpha SMA expression:
• Segmentation and quantification of αSMA immunoreactivity by an HCA algorithm, with density×area (D×A) output • Data normalization of raw αSMA (D×A) to percentage inhibition (PIN) values, on a plate-to-plate basis
• DAPI fluorescence applied for HCA-based quantification of the number of imaged cells, on a plate-to-plate basis
[formula] • μn is the average numbers of nuclei of the vehicle control (TGF-β1+0.1% DMSO) • Xi is the compound number of nuclei

[2] = test system: TGF-β-induced pan-collagen expression; assay: In vitro 3D liver fibrosis assay (HepaRG NP 3D model); type: cell-based; conditions: 1 μM, 100 ng/mL TGF-β1, 72 hours
Procedure: An additional fibrosis assay was carried out with selected compounds using the Visikol OpenLiver™ HepaRG™ NP 3D model directed at fibrosis. The OpenLiver™ HepaRG™ NP 3D model features the ability to recapitulate a number of liver disease pathologies. Whether evaluating the disease-inducing liability of a compound or exploring targets to exploit for therapeutic amelioration of disease state, the HepaRG™ NP 3D model is capable of recapitulating disease features such hepatocellular lipid accumulation, nonparenchymal cell phenotype shift, and collagen matrix deposition.
HepaRGs (Lonza, NSHPRG, Lot #HNS1013) and non-parenchymal (NP) cells (Stellates, Kupffers and LSECS (Lonza, Lot HUM201221)) were thawed, assessed for viability and seeded at a hepatocyte to NP cell ratio of 60:40 into an ultra-low attachment round-bottom plate (Corning, 4515). The cells were initially cultured in William's E medium supplemented with HepaRG Thaw, Plate & General Purpose Supplement (Thermo Fisher, HPRG770) and GlutaMax (Thermo Fisher, 35050061) overnight. The next day the medium was half exchanged with William's E medium supplemented with HepaRG Maintenance Supplement (Thermo Fisher, HPRG720) and GlutaMax (Thermo Fisher, 35050061). […]
Clearing the spheroid with Visikol HISTO-M™ allows for clear images throughout the spheroid volume, therefore allowing the entire z-stack to be analyzed. […]

Cc1cccc(-c2[nH]c(CNc3ccccc3F)nc2-c2ccc3ncnn3c2)n1 [Vactosertib, vactosertib, reference compound]
Potentially toxic concentration [1]: 5.0

Clc1cccc2c(Nc3ccnc(Nc4cccc(N5CCOCC5)c4)c3)cnnc12 [Compound 04, N4-(8-chlorocinnolin-4-yl)-N2-[3-(morpholin-4-yl)phenyl]pyridine-2,4-diamine]
TGF-β-induced pan-collagen expression [2]: inhibited TGF-β-induced pan-collagen expression

Cc1nn(CC(F)(F)F)cc1Nc1cc(Nc2cnnc3c(C)cccc23)ccn1 [Compound 01, N2-[3-methyl-1-(2,2,2-trifluoroethyl)-1H-pyrazol-4-yl]-N4-(8-methylcinnolin-4-yl)pyridine-2,4-diamine]
TGF-β-induced pan-collagen expression [2]: inhibited TGF-β-induced pan-collagen expression
